# Test results taken from US10188754B2, “Compositions and methods for chemical exchange saturation transfer (CEST) based magnetic resonance imaging (MRI)” (THE JOHNS HOPKINS UNIVERSITY, priority 2013, dated 2019).
# Where “and” joins values, the source holds several entries; their conditions need not be identical. Equal entries are not always repeated. Where two headings read alike, the source gives them in different places.
# Assays:
# [1] = in vivo; cited from earlier work
# [2] = type: physicochemical; conditions: 25 mM, pH 7.0-7.4, tsat=3 sec, ω1=3.6 μT, 37° C., 11.7 T
# Method: 25 mM salicylic acid analogs (4-11) were made at pH 7.1-7.4 and tested with the phantom condition as described above. The Z-spectra were obtained by using Tsat=3 sec, ω1=3.6 μT at 37° C. […] CEST contrast was quantified by MTRasym=(S−Δω−S+Δω))/S0 after a voxel-by-voxel B0 correction, with characterized mean Z-spectra and MTRasym spectra for sample ROIs plotted and the typical results were summarized in FIG. 3A.
# [3] = QUESP measurement of proton exchange rate (ksw) of salicylic acid; type: physicochemical; conditions: 25 mM, pH 7.0, QUESP
# Description: The parameters for all fitting were: R1w=0.3, R2w=0.6, R1s=0.71, R2s=39, Tsat=3s.
# [4] = type: in vivo, mouse; conditions: mice, i.v., 9.3 ppm, 7.2 μT
# Description: In particular, images consisting of a single axial slice containing both kidneys were collected. Because the B0 inhomogeneity was less than 200 Hz for these animals, a two-point collection scheme was used to limit the scan time, which is also allowed by the use of the 7.2 μT field strength. […] A Z-spectrum was acquired before injection. […] According to the initial results in FIGS. 4F-4G, the in vivo data collection scheme was modified in order to improve the kinetic data for compound 1 in the kidney. […] In vivo images were acquired on a Bruker Biospec 11.7 T horizontal bore MR scanner, with one axial slice of 1.5 mm thickness obtained through the medulla of both kidneys. […] The BALB/c mice (n=2) weighing 20-25 g (Charles River Laboratories, Wilmington, Mass.) were maintained under specific pathogen free conditions in the animal facility of Johns Hopkins University. […] Breath rate was monitored throughout in vivo MRI experiments using a respiratory probe. […] BALB/c mice weighing 20-25 g (Charles River Laboratories, Wilmington, Mass.) were maintained under specific pathogen free conditions in the animal facility of Johns Hopkins University. […] Breath rate was monitored throughout in vivo MRI experiments using a respiratory probe. A 60 μL, volume of a 0.25 M salicylic acid solution in PBS (pH 7) was slowly injected via a catheter into the tail vein. […]
# [5] = QUESP/QUEST determination of ksw of anthranilic acid analogs; type: physicochemical
# Method: (§1) The solutions were placed into 1 mm glass capillaries and assembled in a holder for CEST MR imaging. They were kept at 37° C. during imaging.
# The Z-spectra were corrected pixel by pixel using a B0 map acquired using Water Saturation Shift Referencing (WASSR) as described in detail previously.
# R1w was allowed to float between 0.33 and s^−1 to obtain the best fit.
# [6] = type: physicochemical; conditions: 10 mM, pH 7.3-7.4, tsat = 3 sec, ω1 = 3.6 μT, 37° C.
# [7] = pH 7.1-7.4, B1=3.6 μT, Tsat=3 s, 37° C., 11.7 T
# Method: as §1
# CEST contrast was quantified using MTRasym=[S(−Δω)−S(+Δω))]/S0 for phantom and 1−S(+Δω))/S(−Δω) in vivo to increase the temporal resolution and reduce the motion where S(+Δω) represents water signal intensity with a saturation pulse applied at the frequency+Δω and S0 represents the water signal without a saturation pulse.
# [8] = neutral pH; cited from earlier work
# [9] = 10 mM, pH 7.3-7.4, 37° C.
# Method: The samples were kept at 37° C. during imaging. […] TR=15 s, TE=8 ms, matrix size=64×32, slice thickness=3 mm.
# The relaxation parameters for each fit were: R1w=0.26 s^−1, R2w=0.43 s-1, R1s=0.71 s^−1, R2s=39 s^−1. These were determined by fitting the direct water saturation line for PBS and were fixed for subsequent fits of each compound with the exchange rate allowed to vary. All data was processed using Python, Scipy, and Numpy (www.python.org, scipy.org, and numpy.scipy.org, respectively).
# [10] = 48.5 tM iopamidol; cited from earlier work
smiles,measurement,setting,value
"O=C(O)c1ccc(O)cc1O [2,4-Dihydroxy benzoic acid]",LD50,[1],800 mg/kg
Nc1ccc(C(=O)O)c(O)c1 [4-amino salicylic acid],LD50,[1],"4,250 mg/kg"
"O=C(O)c1ccccc1O [Compound 1, salicylic acid]",chemical shift of CEST contrast (exchangeable proton) from water,[2],9.3 ppm
same,proton exchange rate with water (ksw),[3],1.2 ks^−1
same,average CEST contrast over the whole kidney,[4],6.0±0.8% and 6%
same,ksw,[5]; pH 6.5,2.4 kHz
same,ksw,[5]; pH 7.8,0.4 kHz
same,Signal (ppm),[6]; Table 1,9.3 ppm
same,CEST frequency / labile proton chemical shift from water,[7],9.3 ppm
same,exchange rate (previously reported),[8],600 s⁻¹
same,kex,[9]; Table 1,400 s⁻¹
"O=C(O)c1ccccc1Nc1cccc(C(F)(F)F)c1 [Compound 5, flufenamic acid, reference compound]",LD50,[1],150 mg/kg
"Nc1cccc(C(=O)O)c1O [Compound 33, 3-aminosalicylic acid]",Signal (ppm),[6]; Table 4,9.0 ppm
same,kex,[9]; Table 4,410 s⁻¹
"O=Cc1cccc(C(=O)O)c1O [Compound 34, 3-Formylsalicylic acid]",Signal (ppm),[6]; Table 4,10.5 ppm
same,kex,[9]; Table 4,510 s⁻¹
O=C(O)c1ccccc1Nc1ccccc1 [Compound 37],Signal (ppm),[6]; Table 5,4.8 ppm
same,kex,[9]; Table 5,670 s⁻¹
CS(=O)(=O)Nc1ccc(N)cc1C(=O)O [Compound 38],Signal (ppm),[6]; Table 5,6.3 ppm
same,kex,[9]; Table 5,550 s⁻¹
CS(=O)(=O)Nc1ccccc1C(=O)O [Compound 39],Signal (ppm),[6]; Table 5,7.3 ppm
same,kex,[9]; Table 5,470 s⁻¹
Cc1ccc(S(=O)(=O)Nc2ccccc2C(=O)O)cc1 [Compound 40],Signal (ppm),[6]; Table 5,7.8 ppm
same,kex,[9]; Table 5,440 s⁻¹
O=C(O)c1ccccc1NC(=O)C(F)(F)F [Compound 41],Signal (ppm),[6]; Table 5,9.3 ppm
same,kex,[9]; Table 5,190 s⁻¹
O=C(O)c1cc(O)c(C(=O)O)cc1O [Compound 42],Signal (ppm),[6]; Table 6,8.3 ppm
same,kex,[9]; Table 6,990 s⁻¹
"O=C(O)c1cc(C(=O)O)c(O)cc1O [Compound 43, 4,6-dihydroxyisophthalic acid]",Signal (ppm),[6]; Table 6,9.8 ppm
same,kex,[9]; Table 6,460 s⁻¹
"O=C(O)c1cc2ccccc2c(Cc2c(O)c(C(=O)O)cc3ccccc23)c1O [Compound 44, Pamoic acid]",Signal (ppm),[6]; Table 6,9.5 ppm
same,kex,[9]; Table 6,130 s⁻¹
C[C@H](O)C(=O)Nc1c(I)c(C(=O)NC(CO)CO)c(I)c(C(=O)NC(CO)CO)c1I [iopamidol],optimal time to observe the contrast,[10],45 min
